Where two headings read alike, the source gives them in different places.
Molecular target: canine TRPM8 (Canis lupus familiaris, UniProt Q1A7N1)
Assay: In Vitro Canine TRPM8 Functional Assay (Ca2+ fluorescence, icilin activation)
Type: cell-based
Settings: for IC50: HEK293 cells stably expressing canine TRPM8, icilin activation, eight-point dose-response, read-out: IC50; for inhibition at 0.2 µM: compound at 0.2 μM, read-out: % Inh @ 0.2
In short: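 Readout is the intracellular Ca2+ fluorescence change, measured by FLIPR or FDSS, in HEK293 cells stably expressing canine TRPM8. Potency (EC50 or IC50) is fitted from eight concentrations averaged over quadruplicate wells.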

[1] = canine TRPM8, icilin activation
[2] = compound at 0.5 μM, canine TRPM8, icilin activation, read-out: % Inh @ 0.5

Sequence of canine TRPM8 (Q1A7N1 1-1104): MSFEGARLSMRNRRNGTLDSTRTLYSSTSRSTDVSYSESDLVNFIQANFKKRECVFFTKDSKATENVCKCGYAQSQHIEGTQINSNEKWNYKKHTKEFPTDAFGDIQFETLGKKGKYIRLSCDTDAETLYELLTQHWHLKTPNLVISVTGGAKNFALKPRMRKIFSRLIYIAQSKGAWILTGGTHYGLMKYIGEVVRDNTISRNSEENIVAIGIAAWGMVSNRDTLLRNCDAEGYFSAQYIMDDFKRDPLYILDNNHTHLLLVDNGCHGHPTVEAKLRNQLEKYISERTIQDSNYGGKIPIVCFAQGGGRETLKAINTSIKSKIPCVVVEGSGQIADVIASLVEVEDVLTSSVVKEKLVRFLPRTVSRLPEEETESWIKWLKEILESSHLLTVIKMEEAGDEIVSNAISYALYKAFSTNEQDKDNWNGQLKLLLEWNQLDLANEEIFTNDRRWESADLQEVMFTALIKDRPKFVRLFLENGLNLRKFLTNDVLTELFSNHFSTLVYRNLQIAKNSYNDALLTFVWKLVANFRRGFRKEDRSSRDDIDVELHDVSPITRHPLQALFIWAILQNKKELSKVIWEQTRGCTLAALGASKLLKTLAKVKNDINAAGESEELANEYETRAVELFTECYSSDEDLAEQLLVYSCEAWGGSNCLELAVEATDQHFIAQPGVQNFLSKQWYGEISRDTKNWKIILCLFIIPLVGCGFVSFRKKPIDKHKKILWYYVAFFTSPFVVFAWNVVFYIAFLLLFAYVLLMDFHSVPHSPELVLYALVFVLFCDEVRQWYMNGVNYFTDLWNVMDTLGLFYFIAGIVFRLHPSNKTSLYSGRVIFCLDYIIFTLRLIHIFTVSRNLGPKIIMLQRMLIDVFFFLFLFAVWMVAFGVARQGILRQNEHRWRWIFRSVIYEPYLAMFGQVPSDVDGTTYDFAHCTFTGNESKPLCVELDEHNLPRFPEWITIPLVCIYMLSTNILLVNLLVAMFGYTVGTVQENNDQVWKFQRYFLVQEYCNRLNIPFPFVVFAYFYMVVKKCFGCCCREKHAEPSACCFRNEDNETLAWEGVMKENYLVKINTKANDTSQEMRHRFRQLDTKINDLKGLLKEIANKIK

Compound: COc1ccc(S(=O)(=O)N(Cc2ccc(F)c(C(F)(F)F)c2)c2sc3ccccc3c2Cl)cc1 [Compound 181, N-(3-Chloro-benzo[b]thiophen-2-yl)-N-(4-fluoro-3-trifluoromethyl-benzyl)-4-methoxy-benzenesulfonamide]
- IC50: 84 nM
- inhibition at 0.2 µM [1]: 95%

Compound: COc1ccc(S(=O)(=O)N(Cc2ccc(F)c(C(F)(F)F)c2)c2sc3ccccc3c2Br)cc1 [Compound 182, N-(3-Bromo-benzo[b]thiophen-2-yl)-N-(4-fluoro-3-trifluoromethyl-benzyl)-4-methoxy-benzenesulfonamide]
- IC50: 10 nM
- inhibition at 0.5 µM [2]: 99%

Compound: CCS(=O)(=O)N(Cc1ccc(F)c(C(F)(F)F)c1)c1sc2ccccc2c1Br [Compound 183, N-(3-Bromo-benzo[b]thiophen-2-yl)-N-(4-fluoro-3-trifluoromethyl-benzyl)-ethanesulfonamide]
- IC50: 14 nM
- inhibition at 0.5 µM [2]: 99%

Compound: O=S(=O)(c1cccs1)N(Cc1ccc(F)c(C(F)(F)F)c1)c1sc2ccccc2c1Br [Compound 184, N-(3-Bromo-benzo[b]thiophen-2-yl)-N-(4-fluoro-3-trifluoromethyl-benzyl)-thiophene-2-sulfonamide]
- IC50: 3.9 nM
- inhibition at 0.5 µM [2]: 97%

Compound: COc1cccc(S(=O)(=O)N(Cc2ccc(F)c(C(F)(F)F)c2)c2sc3ccccc3c2Br)c1 [Compound 185, N-(3-Bromo-benzo[b]thiophen-2-yl)-N-(4-fluoro-3-trifluoromethyl-benzyl)-3-methoxy-benzenesulfonamide]
- IC50: 6.4 nM
- inhibition at 0.2 µM [1]: 102%

Compound: O=S(=O)(c1ccsc1)N(Cc1ccc(F)c(C(F)(F)F)c1)c1sc2ccccc2c1Br [Compound 186, N-(3-Bromo-benzo[b]thiophen-2-yl)-N-(4-fluoro-3-trifluoromethyl-benzyl)-thien-3-yl-sulfonamide]
- IC50: 3.7 nM
- inhibition at 0.2 µM [1]: 103%

Compound: O=S(=O)(c1ccsc1)N(Cc1ccc(F)c(C(F)(F)F)c1)c1sc2ccccc2c1Cl [Compound 187, N-(3-Chloro-benzo[b]thiophen-2-yl)-N-(4-fluoro-3-trifluoromethyl-benzyl)-thien-3-yl-sulfonamide]
- IC50: 6 nM
- inhibition at 0.2 µM [1]: 100%

Compound: O=S(=O)(c1cccnc1)N(Cc1ccc(F)c(C(F)(F)F)c1)c1sc2ccccc2c1Cl [Compound 189, N-(3-Chloro-benzo[b]thiophen-2-yl)-N-(4-fluoro-3-trifluoromethyl-benzyl)-pyridin-3-yl-sulfonamide]
- IC50: 11.6 nM
- inhibition at 0.2 µM [1]: 100%

Compound: CCS(=O)(=O)N(Cc1ccc(F)c(C(F)(F)F)c1)c1sc2ccccc2c1Cl [Compound 190, N-(3-Chloro-benzo[b]thiophen-2-yl)-N-(4-fluoro-3-trifluoromethyl-benzyl)-ethanesulfonamide]
- IC50: 15.2 nM
- inhibition at 0.2 µM [1]: 101%

Compound: O=S(=O)(c1cccs1)N(Cc1ccc(F)c(C(F)(F)F)c1)c1sc2ccccc2c1Cl [Compound 191, N-(3-Chloro-benzo[b]thiophen-2-yl)-N-(4-fluoro-3-trifluoromethyl-benzyl)-thiophene-2-sulfonamide]
- inhibition at 0.2 µM [1]: 105%

Compound: COC(=O)c1ccc(S(=O)(=O)N(Cc2ccc(F)c(C(F)(F)F)c2)c2sc3ccccc3c2Br)cc1 [Compound 192, N-(3-Bromo-benzo[b]thiophen-2-yl)-N-(4-fluoro-3-trifluoromethyl-benzyl)-4-carbomethoxy-benzenesulfonamide]
- IC50: 60 nM
- inhibition at 0.2 µM [1]: 82%

Compound: COC(=O)c1cccc(S(=O)(=O)N(Cc2ccc(F)c(C(F)(F)F)c2)c2sc3ccccc3c2Br)c1 [Compound 193, N-(3-Bromo-benzo[b]thiophen-2-yl)-N-(4-fluoro-3-trifluoromethyl-benzyl)-3-carbomethoxy-benzenesulfonamide]
- IC50: 14.5 nM
- inhibition at 0.2 µM [1]: 101%

Compound: COC(=O)c1ccc(S(=O)(=O)N(Cc2ccc(F)c(C(F)(F)F)c2)c2sc3ccccc3c2Cl)cc1 [Compound 194, N-(3-Chloro-benzo[b]thiophen-2-yl)-N-(4-fluoro-3-trifluoromethyl-benzyl)-4-carbomethoxy-benzenesulfonamide]
- inhibition at 0.2 µM [1]: 45%

Compound: COC(=O)c1cccc(S(=O)(=O)N(Cc2ccc(F)c(C(F)(F)F)c2)c2sc3ccccc3c2Cl)c1 [Compound 195, N-(3-Chloro-benzo[b]thiophen-2-yl)-N-(4-fluoro-3-trifluoromethyl-benzyl)-3-carbomethoxy-benzenesulfonamide]
- IC50: 47.3 nM
- inhibition at 0.2 µM [1]: 88%

Compound: COC(=O)c1ccccc1S(=O)(=O)N(Cc1ccc(F)c(C(F)(F)F)c1)c1sc2ccccc2c1Cl [Compound 196, N-(3-Chloro-benzo[b]thiophen-2-yl)-N-(4-fluoro-3-trifluoromethyl-benzyl)-2-carbomethoxy-benzenesulfonamide]
- IC50: 8 nM
- inhibition at 0.2 µM [1]: 99%

Compound: COC(=O)c1ccccc1S(=O)(=O)N(Cc1ccc(F)c(C(F)(F)F)c1)c1sc2ccccc2c1Br [Compound 197, N-(3-Bromo-benzo[b]thiophen-2-yl)-N-(4-fluoro-3-trifluoromethyl-benzyl)-2-carbomethoxy-benzenesulfonamide]
- IC50: 7 nM
- inhibition at 0.2 µM [1]: 99%

Compound: CCS(=O)(=O)N(Cc1ccc(F)c(C(F)(F)F)c1)c1sc2ccccc2c1C#N [Compound 198, N-(3-Cyano-benzo[b]thiophen-2-yl)-N-(4-fluoro-3-trifluoromethyl-benzyl)-ethanesulfonamide]
- IC50: 10 nM
- inhibition at 0.2 µM [1]: 95%

Compound: CCS(=O)(=O)N(Cc1ccc(F)c(C(F)(F)F)c1)c1sc2ccccc2c1-c1cncnc1 [Compound 199, N-(4-Fluoro-3-trifluoromethyl-benzyl)-N-(3-pyrimidin-5-yl-benzo[b]thiophen-2-yl)-ethanesulfonamide]
- IC50: 13 nM
- inhibition at 0.2 µM [1]: 91%

Compound: CCS(=O)(=O)N(Cc1ccc(F)c(C(F)(F)F)c1)c1sc2ccccc2c1-c1ccccc1F [Compound 200, N-[3-(2-Fluoro-phenyl)-benzo[b]thiophen-2-yl]-N-(4-fluoro-3-trifluoromethyl-benzyl)-ethanesulfonamide]
- inhibition at 0.2 µM [1]: 29%

Compound: CCS(=O)(=O)N(Cc1ccc(F)c(C(F)(F)F)c1)c1sc2ccccc2c1-c1ccc(F)cc1 [Compound 201, N-[3-(4-Fluoro-phenyl)-benzo[b]thiophen-2-yl]-N-(4-fluoro-3-trifluoromethyl-benzyl)-ethanesulfonamide]
- inhibition at 0.2 µM [1]: 14%

Compound: CCS(=O)(=O)N(Cc1ccc(F)c(C(F)(F)F)c1)c1sc2ccccc2c1-c1ccsc1 [Compound 202, N-(4-Fluoro-3-trifluoromethyl-benzyl)-N-(3-thiophen-3-yl-benzo[b]thiophen-2-yl)-ethanesulfonamide]
- inhibition at 0.2 µM [1]: 32%

Compound: CCS(=O)(=O)N(Cc1ccc(F)c(F)c1)c1sc2ccccc2c1C(C)=O [Compound 203]
- inhibition at 0.5 µM (read-out: % Inh @ 0.5 (μM)): 93%

Compound: CC(=O)c1c(N(Cc2ccc(F)c(F)c2)S(=O)(=O)c2ccccc2)sc2ccccc12 [Compound 204, N-(3-Acetyl-benzo[b]thiophen-2-yl)-N-(3,4-difluoro-benzyl)-benzenesulfonamide]
- IC50: 6 nM
- inhibition at 0.5 µM [2]: 96%

Compound: CCS(=O)(=O)N(Cc1ccc(F)c(C(F)(F)F)c1)c1sc2ccccc2c1C(C)=O [Compound 205, N-(3-Acetyl-benzo[b]thiophen-2-yl)-N-(4-fluoro-3-trifluoromethyl-benzyl)-ethanesulfonamide]
- IC50: 3 nM
- inhibition at 0.5 µM [2]: 96%

Compound: O=Cc1c(N(Cc2ccc(F)c(F)c2)S(=O)(=O)c2ccccc2)sc2ccccc12 [Compound 206, N-(3,4-Difluoro-benzyl)-N-(3-formyl-benzo[b]thiophen-2-yl)-benzenesulfonamide]
- IC50: 13 nM
- inhibition at 0.2 µM [1]: 98%

Compound: O=Cc1c(N(Cc2ccc(F)c(C(F)(F)F)c2)S(=O)(=O)c2ccccc2)sc2ccccc12 [Compound 207, N-(4-Fluoro-3-trifluoromethyl-benzyl)-N-(3-formyl-benzo[b]thiophen-2-yl)-benzenesulfonamide]
- IC50: 16 nM
- inhibition at 0.2 µM [1]: 98%

Compound: CS(=O)(=O)N(Cc1ccc(F)c(C(F)(F)F)c1)c1sc2ccccc2c1C=O [Compound 208, N-(4-Fluoro-3-trifluoromethyl-benzyl)-N-(3-formyl-benzo[b]thiophen-2-yl)-methanesulfonamide]
- IC50: 12 nM
- inhibition at 0.2 µM [1]: 96%

Compound: CS(=O)(=O)N(Cc1ccc(F)c(F)c1)c1sc2ccccc2c1C=O [Compound 209, N-(3,4-Difluoro-benzyl)-N-(3-formyl-benzo[b]thiophen-2-yl)-methanesulfonamide]
- IC50: 32 nM
- inhibition at 0.2 µM [1]: 98%

Compound: CCS(=O)(=O)N(Cc1ccc(F)c(C(F)(F)F)c1)c1sc2ccccc2c1C=O [Compound 210, N-(4-Fluoro-3-trifluoromethyl-benzyl)-N-(3-formyl-benzo[b]thiophen-2-yl)-ethanesulfonamide]
- IC50: 8 nM
- inhibition at 0.2 µM [1]: 91%

Compound: COC(=O)c1ccc(S(=O)(=O)N(Cc2ccc(F)c(C(F)(F)F)c2)c2sc3ccccc3c2C=O)cc1 [Compound 211, N-(3-Formyl-benzo[b]thiophen-2-yl)-N-(4-fluoro-3-trifluoromethyl-benzyl)-4-carbomethoxy-benzenesulfonamide]
- IC50: 30 nM
- inhibition at 0.2 µM [1]: 80%

Compound: CCS(=O)(=O)N(Cc1ccc(F)c(F)c1)c1sc2ccccc2c1C=O [Compound 212, N-(3,4-Difluoro-benzyl)-N-(3-formyl-benzo[b]thiophen-2-yl)-ethanesulfonamide]
- IC50: 11.4 nM
- inhibition at 0.2 µM [1]: 101%

Compound: O=S(=O)(c1ccccc1)N(Cc1ccc(F)c(F)c1)c1sc2ccccc2c1CO [Compound 213, N-(3,4-Difluoro-benzyl)-N-(3-hydroxymethyl-benzo[b]thiophen-2-yl)-benzenesulfonamide]
- IC50: 1.4 nM
- inhibition at 0.2 µM [1]: 95%

Source: patent US9434711B2 (Janssen Pharmaceutica, NV, priority 2007, dated 2016)
